Tests used:
[1] = tested on: WM-266.4 cells; experiment: DNA synthesis, [3H]-thymidine incorporation; format: cell-based, human; conditions: 10 μM, 48 hours
Procedure: FIG. 4. Inhibition of cell growth by pharmacological agents. WM-266.4 cells were incubated in the presence of U0126 (10 μM) or BAY 43-9006 (10 μM) or the vehicle control (DMSO). After 48 hours, DNA synthesis was determined by incubating the cells with [^3H]-thymidine and the levels of thymidine incorporated into the cellular DNA was determined.
(§1) Colo 829 cells are a melanoma cell line that harbours a V599E mutation in the BRAF gene and BE cells are a colorectal line that harbour a G463 mutation in the BRAF gene (Davies et al., 2002). As we have shown, both of these mutations are activating (Davies et al., 2002). Finally, we tested the effects of these inhibitors on DNA synthesis.

[2] = tested on: ERK (WM-266-4/WM-115 cells); conditions: WM-266-4/WM-115, melanoma; Ras b; B-Raf V599D
[3] = tested on: CHL; conditions: melanoma, B-Raf wt
From the text: (§2) The second approach is to examine the effects of the compound U0126, an inhibitor of MEK1/2, the only known substrates for B-Raf.

[4] = tested on: Mawi; conditions: colorectal, Ras wt, B-Raf V599E
From the text: as §2

[5] = tested on: colo741; conditions: colo741, colorectal; B-Raf V599E
From the text: as §2

[6] = tested on: SW620; conditions: SW620, colorectal; Ras onc; B-Raf wt
From the text: as §2

[7] = tested on: WM-266-4/WM-115; conditions: WM-266-4/WM-115, melanoma; Ras b; B-Raf V599D
From the text: as §2

[8] = tested on: NCI-H2087; conditions: NCI-H2087, NSCLC cell line pair; Ras onc; B-Raf L596V
From the text: as §2

[9] = tested on: A2058; conditions: A2058, melanoma; B-Raf V599E
From the text: as §2

[10] = tested on: SK-MEL-28; conditions: SK-MEL-28, melanoma; Ras b; B-Raf V599E
From the text: as §2

[11] = tested on: WM-266.4 cells; experiment: Cell cycle analysis by FACS (propridium iodide); format: cell-based, human; conditions: 96 hours
Procedure: FIG. 7. Ablation of BRAF, but not CRAF induces apoptosis in melanoma cells. WM-266.4 cells were treated with a BRAF specific siRNA probe (BRAF), or the scrambled control (sBRAF), or a CRAF specific siRNA probe (CRAF), or U0126, or […] (oligo) or left untreated (control) as indicated. The cells were incubated for 96 hours and the cell cycle profile was analysed by FACS, or PARP expression was examined by Western blotting.
Finally, we examined how BRAF ablation affected cell growth, examining the effects on apoptosis in WM-266.4 cells. For these studies, the cells were fixed in 70% ethanol, stained with propridium iodide and their cell cycle profiles were examined by fluorescent activated cell sorting (FACS). Using this analysis, the apoptotic cells appear in the sub-G1 peak. In these cells, spontaneous apoptosis is very low, with less than 1% of the cell appearing in the sub-G1 peak (FIG. 7, table 5). […] We also examined PARP cleavage, a marker of the induction of apoptosis.
WM-266.4 cells were treated with U0126, DMSO, siRNA to BRAF, siRNA to CRAF or the scrambled siRNA control. The cells were incubated for 96 hours and the cells were fixed and stained with propridium iodide for cell cycle analysis by FACS. The proportion of cells in each phase of the cell cycle is shown.

[12] = tested on: ERK (CHL cells); conditions: melanoma, B-Raf wt
[13] = tested on: ERK (Mawi cells); conditions: colorectal, Ras wt, B-Raf V599E
[14] = tested on: ERK (colo741 cells); conditions: colo741, colorectal; B-Raf V599E
[15] = tested on: ERK (A2058 cells); conditions: A2058, melanoma; B-Raf V599E
[16] = tested on: ERK activity in WM266.4 cells; experiment: Active ERK levels by Western blot with ppERK antibody; format: cell-based, human; conditions: 10 μM compound
Procedure: WM266.4 or A375P cells were treated with 10 μM U0126, 10 μM BAY 43-9006 or DMSO as a control. Equivalent amounts of cellular proteins were resolved on SDS-gels and the levels of active ERK were determined using the ppERK antibody.
FIG. 6. Ablation of BRAF, but not CRAF blocks ERK activity in melanoma cells. WM-266.4 or Colo 829 cells were treated with a BRAF specific siRNA probe (BRAF), or the scrambled control (sBRAF), or a CRAF specific probe (CRAF), or its scrambled control (sCRAF), or oligofectamine (oligo) or left untreated (control) as indicated. The cells were incubated for the times indicated, and the Colo 829 cells were treated for 24hours. The levels of ERK activity in equivalent amounts of cell extract was determined by Western blotting with the ppERK antibody.
In order to validate BRAF as a target in cancer, it is first tested whether the growth of cells that express activated, mutant forms of BRAF required the RAF-MEK-ERK signaling pathway for growth. To this end, melanoma and colorectal cell lines that harbour mutations in the BRAF gene are treated with pharmacological agents that block signaling through this pathway. Two compounds are tested. One is the compound U0126, which is a MEK inhibitor and which therefore uncouples RAF-ERK signaling in cells (Sebolt-Leopold et al., 1999). BAY 43-9006 os also tested. This is an inhibitor of RAF proteins (Lyons et al., 2001). […]

[17] = tested on: ERK (NCI-H2087 cells); conditions: NCI-H2087, NSCLC cell line pair; Ras onc; B-Raf L596V
[18] = tested on: ERK (SK-MEL-28 cells); conditions: SK-MEL-28, melanoma; Ras b; B-Raf V599E
[19] = molecular target: cellular Ras; experiment: cell-based or functional assay
[20] = tested on: WM266.4; experiment: Inhibition of cell growth, sulphorhodamine B staining; format: cell-based, human; conditions: WM266.4 melanoma cells (BRAF V599D)
[21] = tested on: Colo 829; experiment: as above; format: cell-based, human; conditions: Colo 829 melanoma cells (BRAF V599E)
Procedure: as §1
(§3) Cell lines were incubated in the presence of increasing levels of BAY 43-9006 and the levels of cell growth were determined by sulphorhodamine B staining. The IC50 values were determined by non-linear regression analysis and are indicated.

[22] = tested on: BE; experiment: as above; format: cell-based, human; conditions: BE colorectal cells (BRAF G463 mutation)
Procedure: as §1, §3

`N#CC(=C(/N)Sc1ccccc1N)/C(C#N)=C(\N)Sc1ccccc1N` [U0126] was tested, and the “DNA synthesis ([3H]-thymidine incorporation)” value [1] was “strongly suppressed”, the UO/ERK-inhib [2] was greater than 90% and the “U0 inhibit S” value [3] was 51%. For the same compound, the “U0 inhibit S” value [4] was 80%, the “U0 inhibit S” value [5] was 76% and the “U0 inhibit S” value [6] was 92%. For the same compound, the “U0 inhibit S” value [7] was greater than 99%, the “U0 inhibit S” value [8] was 56% and the “U0 inhibit S” value [9] was 68%. For the same compound, the “U0 inhibit S” value [10] was 98%, the “Proportion of events, G1” value [11] was 87.5% and the “Proportion of events, G2/M” value [11] was 7.8%. The “Proportion of events, S” value [11] was 1.3%, the “Proportion of events, Sub-G1” value ([11]; sub-G1 = apoptotic cells) was roughly 3.5% and the UO/ERK-inhib [12] was greater than 90%. The UO/ERK-inhib [13] was greater than 90%, the UO/ERK-inhib [14] was 90% and the UO/ERK-inhib [15] was 80%. The “ERK activity (ppERK Western blot)” value [16] was “strongly suppressed”, the UO/ERK-inhib [17] was greater than 90% and the UO/ERK-inhib [18] was greater than 90%.
Compound monoclonal antibody Y13-259 has an inhibition of growth (percentage of cells that do not incorporate BrdU) after micro-injection of Y13-259; A2058, melanoma, Ras not given, B-Raf V599E [19] of 0%, an inhibition of growth (percentage of cells that do not incorporate BrdU) after micro-injection of Y13-259; CaCO2, colorectal, Ras wt, B-Raf wt [19] of 60% and an inhibition of growth (percentage of cells that do not incorporate BrdU) after micro-injection of Y13-259; DLD1, colorectal, Ras K13Asp/wt, B-Raf wt [19] of 40%. It also gave an inhibition of growth (percentage of cells that do not incorporate BrdU) after micro-injection of Y13-259; HCT-116, colorectal, Ras K13 Asp, B-Raf wt [19] of 95%, an inhibition of growth (percentage of cells that do not incorporate BrdU) after micro-injection of Y13-259; HMV11-Riken, melanoma, Ras not given, B-Raf wt [19] of 100% and an inhibition of growth (percentage of cells that do not incorporate BrdU) after micro-injection of Y13-259; HT29, colorectal, Ras wt, B-Raf V599E [19] of 15%. It also gave an inhibition of growth (percentage of cells that do not incorporate BrdU) after micro-injection of Y13-259; JW2, colorectal, Ras K12, B-Raf wt [19] of 79%, an inhibition of growth (percentage of cells that do not incorporate BrdU) after micro-injection of Y13-259; LS174T, colorectal, Ras K12Asp/wt, B-Raf wt [19] of 84% and an inhibition of growth (percentage of cells that do not incorporate BrdU) after micro-injection of Y13-259; LS411N, colorectal, Ras not given, B-Raf V599E (first value) [19] of 0%. The inhibition of growth (percentage of cells that do not incorporate BrdU) after micro-injection of Y13-259; LS411N, colorectal, Ras not given, B-Raf V599E (second value) [19] was 0%, the inhibition of growth (percentage of cells that do not incorporate BrdU) after micro-injection of Y13-259; Malme, melanoma, Ras not given, B-Raf V599E [19] was 0% and the inhibition of growth (percentage of cells that do not incorporate BrdU) after micro-injection of Y13-259; Mawi, colorectal, Ras wt, B-Raf V599E [19] was 5%. For the same compound, the inhibition of growth (percentage of cells that do not incorporate BrdU) after micro-injection of Y13-259; NCI-H2087, NSCLC cell line pair, Ras onc, B-Raf L596V [19] was 77%, the inhibition of growth (percentage of cells that do not incorporate BrdU) after micro-injection of Y13-259; SK-MEL-28, melanoma, Ras 'b', B-Raf V599E [19] was 4% and the inhibition of growth (percentage of cells that do not incorporate BrdU) after micro-injection of Y13-259; SK-Mel2, melanoma, Ras not given, B-Raf wt [19] was 70%. The inhibition of growth (percentage of cells that do not incorporate BrdU) after micro-injection of Y13-259; SW480, colorectal, Ras K12, B-Raf wt [19] was 57%, the inhibition of growth (percentage of cells that do not incorporate BrdU) after micro-injection of Y13-259; SW620, colorectal, Ras onc, B-Raf wt [19] was 92% and the inhibition of growth (percentage of cells that do not incorporate BrdU) after micro-injection of Y13-259; WM-266-4/WM-115, melanoma, Ras 'b', B-Raf V599D [19] was 10%. It also gave an inhibition of growth (percentage of cells that do not incorporate BrdU) after micro-injection of Y13-259; colo205, colorectal, Ras wt, B-Raf V599E [19] of 3% and an inhibition of growth (percentage of cells that do not incorporate BrdU) after micro-injection of Y13-259; colo741, colorectal, Ras not given, B-Raf V599E [19] of 0%.
With `CNC(=O)c1cc(Oc2ccc(NC(=O)Nc3ccc(Cl)c(C(F)(F)F)c3)cc2)ccn1` [BAY 43-9006] the “DNA synthesis ([3H]-thymidine incorporation)” value [1] was “strongly suppressed”, the IC50 [20] was 6.1 µM and the IC50 ([20]; listed as BAY 43-9002) was roughly 6.1 µM. The IC50 [21] was 5.1 µM, the “IC50, inhibition of cell growth” value [21] was “low micro-molar range” and the IC50 [22] was 5.4 µM. The “IC50, inhibition of cell growth” value [22] was “low micro-molar range” and the “ERK activity (ppERK Western blot)” value [16] was “strongly suppressed”.
